The supplement of paper PMC10307832

Columns and labels:
Assay in all cases: relative viability (nuclei count vs DMSO), 5 days (fraction); higher = more cells survive
A-427 = system: A-427
In short: (§1)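 Lung cancer cell lines, seeded in 1536-well plates, were treated the following day by pin tool with a single drug or with five library-drug doses (not always all listed) in √10 steps on top of a fixed anchor-drug dose. Cells were fixed and nuclei stained in one step after 5 days, and nuclei were counted. Relative viability is the nuclei count for treated wells divided by that for vehicle wells, reported as medians of duplicate plates.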

COR-L23 = system: COR-L23
In short: as §1

ChaGo-K-1 = system: ChaGo-K-1
In short: as §1

EKVX = system: EKVX
In short: as §1

EPLC-272H = system: EPLC-272H
In short: as §1

HCC-44 = system: HCC-44
In short: as §1

HOP-62 = system: HOP-62
In short: as §1

LOU-NH91 = system: LOU-NH91
In short: as §1

NCI-H1395 = system: NCI-H1395
In short: as §1

NCI-H1650 = system: NCI-H1650
In short: as §1

NCI-H1734 = system: NCI-H1734
In short: as §1

NCI-H1915 = system: NCI-H1915
In short: as §1

NCI-H2023 = system: NCI-H2023
In short: as §1

NCI-H2087 = system: NCI-H2087
In short: as §1

NCI-H3122 = system: NCI-H3122
In short: as §1

NCI-H358 = system: NCI-H358
In short: as §1

NCI-H596 = system: NCI-H596
In short: as §1

NCI-H650 = system: NCI-H650
In short: as §1

NCI-H661 = system: NCI-H661
In short: as §1

NCI-H838 = system: NCI-H838
In short: as §1

SK-MES-1 = system: SK-MES-1
In short: as §1

O=C(O)CCCCC(CCSCc1ccccc1)SCc1ccccc1 (stereo not given) [CPI-613] + CCNC(=O)c1noc(-c2cc(C(C)C)c(O)cc2O)c1-c1ccc(CN2CCOCC2)cc1 [Luminespib] (partner 0.01 µM)
relative viability (A-427; first compound 5 µM): 0.85 | relative viability (A-427; first compound 15.81 µM): 0.938 | relative viability (A-427; first compound 50 µM): 0.761 | relative viability (A-427; first compound 158.11 µM): 0.512 | relative viability (A-427; first compound 500 µM): 0.126 | relative viability (COR-L23; first compound 5 µM): 0.58 | relative viability (COR-L23; first compound 15.81 µM): 0.61 | relative viability (COR-L23; first compound 50 µM): 0.664 | relative viability (COR-L23; first compound 158.11 µM): 0.108 | relative viability (COR-L23; first compound 500 µM): 0.0308 | relative viability (ChaGo-K-1; first compound 5 µM): 0.533 | relative viability (ChaGo-K-1; first compound 15.81 µM): 0.61 | relative viability (ChaGo-K-1; first compound 50 µM): 0.596 | relative viability (ChaGo-K-1; first compound 158.11 µM): 0.204 | relative viability (ChaGo-K-1; first compound 500 µM): 0.11 | relative viability (EKVX; first compound 5 µM): 0.834 | relative viability (EKVX; first compound 15.81 µM): 0.881 | relative viability (EKVX; first compound 50 µM): 0.864 | relative viability (EKVX; first compound 158.11 µM): 0.814 | relative viability (EKVX; first compound 500 µM): 0.803 | relative viability (EPLC-272H; first compound 5 µM): 0.338 | relative viability (EPLC-272H; first compound 15.81 µM): 0.32 | relative viability (EPLC-272H; first compound 50 µM): 0.575 | relative viability (EPLC-272H; first compound 158.11 µM): 0.0624 | relative viability (EPLC-272H; first compound 500 µM): 0.0121 | relative viability (HCC-44; first compound 5 µM): 0.964 | relative viability (HCC-44; first compound 15.81 µM): 0.939 | relative viability (HCC-44; first compound 50 µM): 1.04 | relative viability (HCC-44; first compound 158.11 µM): 0.495 | relative viability (HCC-44; first compound 500 µM): 0.121 | relative viability (HOP-62; first compound 5 µM): 0.882 | relative viability (HOP-62; first compound 15.81 µM): 0.944 | relative viability (HOP-62; first compound 50 µM): 0.894 | relative viability (HOP-62; first compound 158.11 µM): 0.627 | relative viability (HOP-62; first compound 500 µM): 0.607 | relative viability (LOU-NH91; first compound 5 µM): 0.344 | relative viability (LOU-NH91; first compound 15.81 µM): 0.325 | relative viability (LOU-NH91; first compound 50 µM): 0.323 | relative viability (LOU-NH91; first compound 158.11 µM): 0.309 | relative viability (LOU-NH91; first compound 500 µM): 0.34 | relative viability (NCI-H1395; first compound 5 µM): 0.672 | relative viability (NCI-H1395; first compound 15.81 µM): 0.828 | relative viability (NCI-H1395; first compound 50 µM): 0.749 | relative viability (NCI-H1395; first compound 158.11 µM): 0.665 | relative viability (NCI-H1395; first compound 500 µM): 0.659 | relative viability (NCI-H1650; first compound 5 µM): 0.213 | relative viability (NCI-H1650; first compound 15.81 µM): 0.224 | relative viability (NCI-H1650; first compound 50 µM): 0.194 | relative viability (NCI-H1650; first compound 158.11 µM): 0.168 | relative viability (NCI-H1650; first compound 500 µM): 0.0166 | relative viability (NCI-H1734; first compound 5 µM): 0.197 | relative viability (NCI-H1734; first compound 15.81 µM): 0.194 | relative viability (NCI-H1734; first compound 50 µM): 0.164 | relative viability (NCI-H1734; first compound 158.11 µM): 0.165 | relative viability (NCI-H1734; first compound 500 µM): 0.107 | relative viability (NCI-H1915; first compound 5 µM): 0.746 | relative viability (NCI-H1915; first compound 15.81 µM): 0.841 | relative viability (NCI-H1915; first compound 50 µM): 0.675 | relative viability (NCI-H1915; first compound 158.11 µM): 0.161 | relative viability (NCI-H1915; first compound 500 µM): 0.0405 | relative viability (NCI-H2023; first compound 5 µM): 0.791 | relative viability (NCI-H2023; first compound 15.81 µM): 0.692 | relative viability (NCI-H2023; first compound 50 µM): 0.736 | relative viability (NCI-H2023; first compound 158.11 µM): 0.052 | relative viability (NCI-H2023; first compound 500 µM): 0.0128 | relative viability (NCI-H2087; first compound 5 µM): 0.182 | relative viability (NCI-H2087; first compound 15.81 µM): 0.165 | relative viability (NCI-H2087; first compound 50 µM): 0.155 | relative viability (NCI-H2087; first compound 158.11 µM): 0.0422 | relative viability (NCI-H2087; first compound 500 µM): 0.026 | relative viability (NCI-H3122; first compound 5 µM): 0.0787 | relative viability (NCI-H3122; first compound 15.81 µM): 0.088 | relative viability (NCI-H3122; first compound 50 µM): 0.0889 | relative viability (NCI-H3122; first compound 158.11 µM): 0.0798 | relative viability (NCI-H3122; first compound 500 µM): 0.0712 | relative viability (NCI-H358; first compound 5 µM): 0.287 | relative viability (NCI-H358; first compound 15.81 µM): 0.249 | relative viability (NCI-H358; first compound 50 µM): 0.356 | relative viability (NCI-H358; first compound 158.11 µM): 0.414 | relative viability (NCI-H358; first compound 500 µM): 0.408 | relative viability (NCI-H596; first compound 5 µM): 0.954 | relative viability (NCI-H596; first compound 15.81 µM): 0.955 | relative viability (NCI-H596; first compound 50 µM): 1.12 | relative viability (NCI-H596; first compound 158.11 µM): 0.168 | relative viability (NCI-H596; first compound 500 µM): 0.0176 | relative viability (NCI-H650; first compound 5 µM): 0.811 | relative viability (NCI-H650; first compound 15.81 µM): 0.732 | relative viability (NCI-H650; first compound 50 µM): 0.852 | relative viability (NCI-H650; first compound 158.11 µM): 0.69 | relative viability (NCI-H650; first compound 500 µM): 0.613 | relative viability (NCI-H661; first compound 5 µM): 0.887 | relative viability (NCI-H661; first compound 15.81 µM): 0.904 | relative viability (NCI-H661; first compound 50 µM): 0.916 | relative viability (NCI-H661; first compound 158.11 µM): 0.468 | relative viability (NCI-H661; first compound 500 µM): 0.141 | relative viability (NCI-H838; first compound 5 µM): 0.249 | relative viability (NCI-H838; first compound 15.81 µM): 0.243 | relative viability (NCI-H838; first compound 50 µM): 0.24 | relative viability (NCI-H838; first compound 158.11 µM): 0.122 | relative viability (NCI-H838; first compound 500 µM): 0.0891 | relative viability (SK-MES-1; first compound 5 µM): 0.772 | relative viability (SK-MES-1; first compound 15.81 µM): 0.659 | relative viability (SK-MES-1; first compound 50 µM): 0.666 | relative viability (SK-MES-1; first compound 158.11 µM): 0.163 | relative viability (SK-MES-1; first compound 500 µM): 0.0794
